This note sets out measurements from ChEMBL document CHEMBL4011630 (J Med Chem, 2017).

Where a SMILES comes first, the peptide text is derived from it. Bridges are numbered along the chain shown (N, C = ends). [ ]: non-standard residue; d: D form. hMet = CSCCC[C@H](N)C(=O)O

The target in assay [1] is T1, Nicotinic acetylcholine receptor alpha6/alpha3/beta4 (Rattus norvegicus, UniProt P04757+P12392+P43143). The experiment in a line: Antagonist activity at rat alpha6/alpha3beta4 nACHR expressed in xenopous laevis oocyte assessed as inhibition of ACh induced channel current after 5 mins at -70 mV holding potential by two electrode voltage clamp method.
T1 sequence (P04757 whole entry): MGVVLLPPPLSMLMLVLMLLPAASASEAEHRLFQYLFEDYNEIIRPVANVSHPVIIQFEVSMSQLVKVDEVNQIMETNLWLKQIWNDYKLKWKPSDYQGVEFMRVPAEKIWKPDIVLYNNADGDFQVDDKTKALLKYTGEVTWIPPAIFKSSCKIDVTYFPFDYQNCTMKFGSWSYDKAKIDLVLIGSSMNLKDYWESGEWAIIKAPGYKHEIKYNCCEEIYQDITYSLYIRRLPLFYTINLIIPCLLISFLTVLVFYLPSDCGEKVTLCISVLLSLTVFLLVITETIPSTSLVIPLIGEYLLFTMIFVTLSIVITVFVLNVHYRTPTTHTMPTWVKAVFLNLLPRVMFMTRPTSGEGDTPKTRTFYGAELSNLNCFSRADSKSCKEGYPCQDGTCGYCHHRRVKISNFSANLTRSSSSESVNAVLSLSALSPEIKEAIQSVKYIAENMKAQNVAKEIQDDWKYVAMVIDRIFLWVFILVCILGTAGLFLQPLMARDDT
T1 sequence (P12392 whole entry): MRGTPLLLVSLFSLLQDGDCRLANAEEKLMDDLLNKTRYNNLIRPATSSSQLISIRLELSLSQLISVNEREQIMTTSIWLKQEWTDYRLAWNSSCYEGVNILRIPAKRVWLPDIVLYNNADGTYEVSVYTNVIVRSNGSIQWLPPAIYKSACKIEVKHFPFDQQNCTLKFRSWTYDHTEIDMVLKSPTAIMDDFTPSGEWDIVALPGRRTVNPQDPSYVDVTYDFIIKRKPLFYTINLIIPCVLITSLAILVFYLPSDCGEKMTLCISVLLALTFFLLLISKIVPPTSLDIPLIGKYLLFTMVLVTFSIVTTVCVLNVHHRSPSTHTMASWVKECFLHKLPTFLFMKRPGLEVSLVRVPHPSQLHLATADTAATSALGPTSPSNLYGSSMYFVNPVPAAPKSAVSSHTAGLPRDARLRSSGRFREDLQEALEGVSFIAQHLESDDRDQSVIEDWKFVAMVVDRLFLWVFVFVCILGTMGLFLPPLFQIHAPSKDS
T1 sequence (P43143 whole entry): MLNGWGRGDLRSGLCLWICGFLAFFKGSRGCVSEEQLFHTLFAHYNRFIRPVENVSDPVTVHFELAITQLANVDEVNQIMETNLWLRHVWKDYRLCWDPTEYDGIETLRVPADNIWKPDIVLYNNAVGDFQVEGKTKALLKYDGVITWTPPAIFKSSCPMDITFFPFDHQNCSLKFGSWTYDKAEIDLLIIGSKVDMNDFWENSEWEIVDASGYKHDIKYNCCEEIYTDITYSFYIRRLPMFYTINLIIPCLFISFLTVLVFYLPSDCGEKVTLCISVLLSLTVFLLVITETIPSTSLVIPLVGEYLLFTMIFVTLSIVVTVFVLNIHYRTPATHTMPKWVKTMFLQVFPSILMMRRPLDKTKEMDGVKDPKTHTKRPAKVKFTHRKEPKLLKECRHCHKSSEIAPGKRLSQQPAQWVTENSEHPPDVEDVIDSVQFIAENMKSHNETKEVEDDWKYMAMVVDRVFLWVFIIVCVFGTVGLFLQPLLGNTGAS
The target in assay [2] is T2, Neuronal acetylcholine receptor; alpha3/beta4 (Rattus norvegicus, UniProt P04757+P12392). The experiment in a line: Antagonist activity at rat alpha3beta4 nACHR expressed in xenopous laevis oocyte assessed as inhibition of ACh induced channel current after 5 mins at -70 mV holding potential by two electrode voltage clamp method.
T2 sequence (P04757 whole entry): as the sequence (P04757 whole entry) above
T2 sequence (P12392 whole entry): as the sequence (P12392 whole entry) above
The target in assay [3] is T2, Neuronal acetylcholine receptor; alpha3/beta4. The experiment in a line: Antagonist activity at rat alpha3beta4 nACHR expressed in xenopous laevis oocyte assessed as inhibition of ACh induced channel current after 6 to 10 mins at -70 mV holding potential by two electrode voltage clamp method. (Two-electrode voltage clamp is typically applied to oocytes expressing channels or transporters.)

In assay [4] the target is T1, Nicotinic acetylcholine receptor alpha6/alpha3/beta4. Description: Antagonist activity at rat alpha6/alpha3beta4 nACHR expressed in xenopous laevis oocyte assessed as inhibition of ACh induced channel current after 6 to 10 mins at -70 mV holding potential by two electrode voltage clamp method.
The species named for a further assay is Rattus norvegicus. The experiment in a line: Selectivity ratio of IC50 for rat alpha6/alpha3beta4 nACHR expressed in xenopous laevis oocyte after 6 to 10 mins to IC50 for rat alpha3beta4 nACHR expressed in xenopous laevis oocyte after 6 to 10 mins.

`CC[C@H](C)[C@@H]1NC(=O)[C@H](C)NC(=O)[C@H](C)NC(=O)[C@@H]2CSSC[C@H](NC(=O)CN)C(=O)N[C@@H](CSSC[C@@H](C(N)=O)NC(=O)[C@H]([C@@H](C)CC)NC(=O)[C@@H]3CCCN3C(=O)[C@H](CO)NC1=O)C(=O)N[C@@H](CO)C(=O)N[C@@H](Cc1cnc[nH]1)C(=O)N1CCC[C@H]1C(=O)N[C@@H](C(C)C)C(=O)N2` (H-GCCSHPVCAAISPIC-NH2; disulfide 2-8, 3-15): the half-maximal inhibitory concentration (IC50) in assay [1] stood at 101 nM; in assay [2], 30.7 nM.

As for `CC[C@H](C)[C@@H]1NC(=O)[C@@H]2CCCN2C(=O)[C@H](CO)NC(=O)[C@H](CCCSC)NC(=O)[C@H](C)NC(=O)[C@H](CO)NC(=O)[C@@H]2CSSC[C@H](NC(=O)CN)C(=O)N[C@@H](CSSC[C@@H](C(N)=O)NC1=O)C(=O)N[C@@H](CO)C(=O)N[C@@H](Cc1cnc[nH]1)C(=O)N1CCC[C@H]1C(=O)N[C@@H](C)C(=O)N2` (H-GCCSHPACSA[hMet]SPIC-NH2; disulfide 2-8, 3-15), the IC50 in assay [1] and in assay [2] was more than 10000 nM throughout. Take `CC[C@H](C)[C@@H]1NC(=O)[C@@H]2CCCN2C(=O)[C@H](C)NC(=O)[C@H](CCCSC)NC(=O)[C@H](C)NC(=O)[C@H](CO)NC(=O)[C@@H]2CSSC[C@H](NC(=O)CN)C(=O)N[C@@H](CSSC[C@@H](C(N)=O)NC1=O)C(=O)N[C@@H](CO)C(=O)N[C@@H](Cc1cnc[nH]1)C(=O)N1CCC[C@H]1C(=O)N[C@@H](C(C)C)C(=O)N2` (H-GCCSHPVCSA[hMet]APIC-NH2; disulfide 2-8, 3-15): the figures for the IC50 in assay [1] and in assay [2] were 39.3 nM and 17.4 nM, respectively. On to `CC[C@H](C)[C@@H]1NC(=O)[C@H](CCC(N)=O)NC(=O)[C@@H]2CCCN2C(=O)[C@H](CC(N)=O)NC(=O)[C@H](Cc2cnc[nH]2)NC(=O)[C@H](C(C)C)NC(=O)[C@H]([C@@H](C)O)NC(=O)[C@@H]2CSSC[C@H](NC(=O)[C@@H]3CCCN3C(=O)[C@H](CC(=O)O)NC(=O)[C@@H](N)CCCN=C(N)N)C(=O)N[C@@H](CSSC[C@@H](C(N)=O)NC1=O)C(=O)N[C@@H](CO)C(=O)N[C@@H](CC(N)=O)C(=O)N1CCC[C@H]1C(=O)N[C@@H](C(C)C)C(=O)N2` (H-RDPCCSNPVCTVHNPQIC-NH2; disulfide 4-10, 5-18), for which the IC50 in assay [3] stood at 518 nM; in assay [4], 30 nM.

With `CC[C@H](C)[C@@H]1NC(=O)[C@H](CCC(N)=O)NC(=O)[C@@H]2CCCN2C(=O)[C@H](CC(N)=O)NC(=O)[C@H](Cc2cnc[nH]2)NC(=O)[C@H](C(C)C)NC(=O)[C@H]([C@@H](C)O)NC(=O)[C@@H]2CSSC[C@H](NC(=O)[C@@H]3CCCN3C(=O)[C@H](CC(=O)O)NC(=O)[C@@H](N)CCCNC(=N)N)C(=O)N[C@@H](CSSC[C@@H](C(N)=O)NC1=O)C(=O)N[C@@H](CO)C(=O)N[C@@H](CC(N)=O)C(=O)N1CCC[C@H]1C(=O)N[C@@H](C(C)C)C(=O)N2` (H-RDPCCSNPVCTVHNPQIC-NH2; disulfide 4-10, 5-18), in the assay listed under Rattus norvegicus, the Ratio IC50 turned out to be 0.058.

The IC50 is the concentration that inhibits the measured activity by half.
